The target in one assay is human recombinant FAAH (Homo sapiens (Human), UniProt O00519). Nature of the assay: In vitro inhibition of FAAH activity (fluorescent inhibitor screening kit, AMC arachidonoyl amide). Type of assay: biochemical. Conditions: human recombinant FAAH; read-out: Inhibition on FAAH activity (IC50). The source says: The inhibitory effect of compounds of Formula (I-IV) on the activity of human recombinant FAAH was studied using a commercial inhibitor screening kit (Cayman Chemicals, Godlewski et al., 2010 [19]). In brief, FAAH hydrolyzes AMC arachidonoyl amide resulting in the release of the fluorescent product, while the inhibitor will inhibit the FAAH activity and thus reduce the fluorescent signal. The resulting fluorophore can be analyzed using an excitation wavelength of 340-360 nm and an emission wavelength of 450-465 nm by a plate reader (Synergy H1, Biotek). Inhibition is calculated as a percentage of the treated sample over the non-treated control based on the signal values, and where possible, a range of concentrations of compounds was tested to find the IC50 values (i.e. the concentration of compound that inhibited 50% FAAH activity).
Chain of human recombinant FAAH (O00519 whole entry): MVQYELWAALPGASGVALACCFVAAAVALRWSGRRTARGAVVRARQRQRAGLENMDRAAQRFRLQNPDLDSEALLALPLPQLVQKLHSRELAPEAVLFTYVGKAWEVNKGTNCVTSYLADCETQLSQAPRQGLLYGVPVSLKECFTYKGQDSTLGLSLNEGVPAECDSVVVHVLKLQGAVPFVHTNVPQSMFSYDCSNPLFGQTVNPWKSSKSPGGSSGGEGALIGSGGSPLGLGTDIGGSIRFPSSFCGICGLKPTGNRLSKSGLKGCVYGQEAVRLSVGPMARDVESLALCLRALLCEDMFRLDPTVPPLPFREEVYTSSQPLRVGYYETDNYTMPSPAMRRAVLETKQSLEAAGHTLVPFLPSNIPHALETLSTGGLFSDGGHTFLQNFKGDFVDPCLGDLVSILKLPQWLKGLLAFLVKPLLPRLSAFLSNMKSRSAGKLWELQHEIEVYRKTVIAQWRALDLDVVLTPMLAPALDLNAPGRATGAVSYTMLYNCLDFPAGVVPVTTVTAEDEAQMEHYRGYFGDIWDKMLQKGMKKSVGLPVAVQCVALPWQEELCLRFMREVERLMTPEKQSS

Another assay has as its target human recombinant MAGL (Homo sapiens (Human), UniProt Q99685). The assay can be described thus: In vitro inhibition of MAGL activity (inhibitor screening kit, 4-nitrophenylacetate). Type of assay: biochemical. The conditions noted are these: human recombinant MAGL. As for the experimental part: The inhibitory effect of the compounds on activity of human recombinant MAGL was also studied using a commercial inhibitor screening kit (Cayman Chemicals). In brief, MAGL hydrolyzes 4-nitrophenylacetate resulting in a yellow product, 4-nitrophenol with an absorbance at 405-412 nm, while the inhibitor will inhibit the MAGL activity and thus reduce the yellow signal. The absorbance of the yellow product can be analyzed using the plate reader. Inhibition is calculated as a percentage of the treated sample over the non-treated MAGL control based on the signal values.

Here are results for 38 compounds from patent US20250129027A1 (APOGEE PHARMACEUTICALS, INC., priority 2023, published 2025).

Usually IC50 stands for the point on the concentration scale where inhibition reaches its midpoint.

Some results are limits rather than exact numbers.

Chain of human recombinant MAGL (Q99685 whole entry): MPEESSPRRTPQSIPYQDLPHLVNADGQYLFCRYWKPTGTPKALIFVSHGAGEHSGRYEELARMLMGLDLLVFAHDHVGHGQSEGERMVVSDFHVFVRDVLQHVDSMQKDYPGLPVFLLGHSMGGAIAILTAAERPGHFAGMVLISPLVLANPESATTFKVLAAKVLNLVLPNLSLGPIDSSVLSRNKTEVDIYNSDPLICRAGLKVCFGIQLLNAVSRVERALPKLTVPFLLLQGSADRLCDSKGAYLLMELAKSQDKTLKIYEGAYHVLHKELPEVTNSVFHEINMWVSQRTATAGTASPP

On to `CCCCCCCCNC(=O)Oc1cccc(-c2cncc(-c3ccc[nH]3)c2)c1` [Example 35, 3-(5-(1H-pyrrol-2-yl)pyridin-3-yl)phenyl octylcarbamate], for which the IC50 is 0.01 to 0.1 µM at human recombinant FAAH and over 10 µM at human recombinant MAGL.
The matching figures for `COc1ccc(OC(=O)NCc2ccccc2)cc1-c1cncc(-c2ccco2)c1` [Example 55, 3-(5-(furan-2-yl)pyridin-3-yl)-4-methoxyphenyl benzylcarbamate]: about 1 µM and about 10 µM.
In the same order, the values of `COc1ccc(OC(=O)NC2CCCCCC2)cc1-c1cncc(-c2cccs2)c1` [Example 70, 4-methoxy-3-(5-(thiophen-2-yl)pyridin-3-yl)phenyl cycloheptylcarbamate] are 0.1 to 1 µM and over 10 µM.
In the same order, the values of `CCCCCCCCNC(=O)Oc1cccc(-c2cncc(-c3nnn[nH]3)c2)c1` [Example 238, 3-(5-(1H-tetrazol-5-yl)pyridin-3-yl)phenyl octylcarbamate] are 0.01 to 0.1 µM and about 10 µM.
`COc1ccc(OC(=O)NCC2CCCCC2)cc1-c1cncc(-c2cccs2)c1` [Example 66, 4-methoxy-3-(5-(thiophen-2-yl)pyridin-3-yl)phenyl (cyclohexylmethyl)carbamate]: the IC50 is 0.1 to 1 µM at human recombinant FAAH and about 10 µM on human recombinant MAGL.
With `O=Cc1cncc(-c2cccc(OC(=O)NCC3CCCCC3)c2)c1` [Example 17, 3-(5-formylpyridin-3-yl)phenyl (cyclohexylmethyl)carbamate], the IC50 at human recombinant FAAH is 0.01 to 0.1 µM; on human recombinant MAGL, over 10 µM.
The matching figures for `O=C(NC1CCCCCC1)Oc1cccc(-c2cncc(-c3ncno3)c2)c1` [Example 206, 3-(5-(1,2,4-oxadiazol-5-yl)pyridin-3-yl)phenyl cycloheptylcarbamate]: 0.01 to 0.1 µM and over 10 µM.
The matching figures for `O=C(NC1CCCC1)Oc1cccc(-c2cncc(-c3ccc[nH]3)c2)c1` [Example 38, 3-(5-(1H-pyrrol-2-yl)pyridin-3-yl)phenyl cyclopentylcarbamate]: 0.1 to 1 µM and over 10 µM.
The matching figures for `COc1ccc(OC(=O)NC2CCCCC2)cc1-c1cncc(-c2ccco2)c1` [Example 57, 3-(5-(furan-2-yl)pyridin-3-yl)-4-methoxyphenyl cyclohexylcarbamate]: 0.1 to 1 µM and over 10 µM.
For the compound `CCCCCCCCNC(=O)Oc1ccc(OC)c(-c2cncc(-c3nncs3)c2)c1` [Example 213, 3-(5-(1,3,4-thiadiazol-2-yl)pyridin-3-yl)-4-methoxyphenyl octylcarbamate], the IC50 at human recombinant FAAH was 0.001 to 0.01 µM; on human recombinant MAGL, about 10 µM.
Turning to `COc1ccc(OC(=O)NC2CCCCC2)cc1-c1cncc(-c2ccc[nH]2)c1` [Example 45, 3-(5-(1H-pyrrol-2-yl)pyridin-3-yl)-4-methoxyphenyl cyclohexylcarbamate], the IC50 at human recombinant FAAH is over 1 µM; on human recombinant MAGL, over 10 µM.
The matching figures for `O=C(NC1CCCCCC1)Oc1cccc(-c2cncc(C(F)(F)F)c2)c1` [Example 34, 3-(5-(trifluoromethyl)pyridin-3-yl)phenyl cycloheptylcarbamate]: 0.1 to 1 µM and over 10 µM.
In the same order, the values of `Cc1ccc(-c2cncc(-c3ncco3)c2)cc1OC(=O)NC1CCCCC1` [Example 95, 2-methyl-5-(5-(oxazol-2-yl)pyridin-3-yl)phenyl cyclohexylcarbamate] are over 1 µM and over 1 µM.
The matching figures for `COc1cc(OC(=O)NCc2ccccc2)cc(-c2cncc(-c3nnco3)c2)c1` [Example 176, 3-(5-(1,3,4-oxadiazol-2-yl)pyridin-3-yl)-5-methoxyphenyl benzylcarbamate]: over 1 µM and over 10 µM.
For `COc1cc(OC(=O)NC2CCCCC2)cc(-c2cncc(-c3nnco3)c2)c1` [Example 178, 3-(5-(1,3,4-oxadiazol-2-yl)pyridin-3-yl)-5-methoxyphenyl cyclohexylcarbamate], the IC50 on human recombinant FAAH was about 0.1 µM; on human recombinant MAGL it was over 10 µM.
In the same order, the values of `O=C(NC1CCCC1)Oc1ccc(O)c(-c2cncc(-c3nnn[nH]3)c2)c1` [Example 247, 3-(5-(1H-tetrazol-5-yl)pyridin-3-yl)-4-hydroxyphenyl cyclopentylcarbamate] are over 1 µM and over 10 µM.
For `COc1ccc(OC(=O)NC2CCCC2)cc1-c1cncc(-c2ccc[nH]2)c1` [Example 44, 3-(5-(1H-pyrrol-2-yl)pyridin-3-yl)-4-methoxyphenyl cyclopentylcarbamate], the IC50 on human recombinant FAAH is over 1 µM; at human recombinant MAGL it was over 10 µM.
With `CCCCCCCCNC(=O)Oc1ccc(OC)c(-c2cncc(-c3cccs3)c2)c1` [Example 65, 4-methoxy-3-(5-(thiophen-2-yl)pyridin-3-yl)phenyl octylcarbamate], the IC50 at human recombinant FAAH was in the range of 0.01 to 0.1 µM.
The same measure, in the same setting: next, `CCCCCCCNC(=O)Oc1ccc(OC)c(-c2cncc(-c3nnco3)c2)c1` [Example 166, 3-(5-(1,3,4-oxadiazol-2-yl)pyridin-3-yl)-4-methoxyphenyl heptylcarbamate]: 0.01 to 0.1 µM; `CCCCCCCCNC(=O)Oc1cccc(-c2cncc(-c3ccco3)c2)c1` [Example 47, 3-(5-(furan-2-yl)pyridin-3-yl)phenyl octylcarbamate]: 0.001 to 0.01 µM.
Regarding `O=C(NC1CCCCC1)Oc1cccc(-c2cc(-c3nnco3)ccn2)c1` [Example 260, 3-(4-(1,3,4-oxadiazol-2-yl)pyridin-2-yl)phenyl cyclohexylcarbamate], on human recombinant MAGL, the IC50 was over 10 µM.
For the compound `CCCCCCCCCCCCNC(=O)Oc1cccc(-c2cncc(-c3nnco3)c2)c1` [Example 131, 3-(5-(1,3,4-oxadiazol-2-yl)pyridin-3-yl)phenyl dodecylcarbamate], the IC50 at human recombinant FAAH was 0.01 to 0.02 µM.
On the same count and under the same terms, next, `CCCCCCCCNC(=O)Oc1ccc(O)c(-c2cncc(-c3nnco3)c2)c1` [Example 157, 3-(5-(1,3,4-oxadiazol-2-yl)pyridin-3-yl)-4-hydroxyphenyl octylcarbamate]: 0.001 to 0.01 µM.
The same measure, in the same setting: next, `CCCCCCCCNC(=O)Oc1cccc(-c2cncc(-c3nnco3)c2)c1` [Example 130, 3-(5-(1,3,4-oxadiazol-2-yl)pyridine-3-yl)phenyl octylcarbamate]: 0.001 to 0.01 µM.
The same measure, in the same setting: with `CCCCCCCNC(=O)Oc1cccc(-c2cncc(C(=O)OC)c2)c1` [Example 9, methyl 5-(3-((heptylcarbamoyl)oxy)phenyl)nicotinate] the figure was 0.001 to 0.01 µM; with `CCCCCCCNC(=O)Oc1cccc(-c2cncc(C#N)c2)c1` [Example 26, 3-(5-cyanopyridin-3-yl)phenyl heptylcarbamate], 0.01 to 0.1 µM.
Turning to `CCCCCCCCNC(=O)Oc1ccc(OC(F)(F)F)c(-c2cncc(-c3ncco3)c2)c1` [Example 88, 3-(5-(oxazol-2-yl)pyridin-3-yl)-4-(trifluoromethoxy)phenyl octylcarbamate], the IC50 on human recombinant FAAH was 0.01 to 0.1 µM.
On to `CCCCCCNC(=O)Oc1cccc(-c2cncc(-c3nnco3)c2)c1` [Example 128, 3-(5-(1,3,4-oxadiazol-2-yl)pyridin-3-yl)phenyl hexylcarbamate], for which the IC50 on human recombinant FAAH was in the range of 0.01 to 0.02 µM.
Still for that read-out and setting: with `CCCCCNC(=O)Oc1cccc(-c2cncc(C(=O)OCC)c2)c1` [Example 1, ethyl 5-(3-((pentylcarbamoyl)oxy)phenyl)nicotinate] the figure was 0.01 to 0.1 µM.
In the case of `CCCCCCCCNC(=O)Oc1cccc(-c2cncc(C(=O)OC)c2)c1` [Example 10, methyl 5-(3-((octylcarbamoyl)oxy)phenyl)nicotinate], the IC50 at human recombinant FAAH is 0.001 to 0.01 µM.
On the same count and under the same terms, with `CCCCCCCCNC(=O)Oc1ccc(OC)c(-c2cncc(-c3nnco3)c2)c1` [Example 167, 3-(5-(1,3,4-oxadiazol-2-yl)pyridin-3-yl)-4-methoxyphenyl octylcarbamate] the figure was 0.001 to 0.01 µM; with `COc1ccc(OC(=O)NC2CCCCC2)cc1-c1cncc(-c2nncs2)c1` [Example 217, 3-(5-(1,3,4-thiadiazol-2-yl)pyridin-3-yl)-4-methoxyphenyl cyclohexylcarbamate], 0.1 to 1 µM; with `CCCCCCCCNC(=O)Oc1cccc(-c2cncc(C(F)(F)F)c2)c1` [Example 30, 3-(5-(trifluoromethyl)pyridin-3-yl)phenyl octylcarbamate], 0.01 to 0.1 µM.
Same read-out and setting: with `CCCCCCCCNC(=O)Oc1cccc(-c2cncc(C(=O)OCC)c2)c1` [Example 3, ethyl 5-(3-((octylcarbamoyl)oxy)phenyl)nicotinate] the figure was 0.01 to 0.1 µM; with `CCCCCCCCNC(=O)Oc1ccc(OC)c(-c2cncc(-c3ccc[nH]3)c2)c1` [Example 41, 3-(5-(1H-pyrrol-2-yl)pyridin-3-yl)-4-methoxyphenyl octylcarbamate], 0.01 to 0.1 µM.
The same measure, in the same setting: with `CCCCCCCNC(=O)Oc1ccc(O)c(-c2cncc(-c3nnco3)c2)c1` [Example 156, 3-(5-(1,3,4-oxadiazol-2-yl)pyridin-3-yl)-4-hydroxyphenyl heptylcarbamate] the figure was 0.001 to 0.01 µM; with `CCCCCNC(=O)Oc1cccc(-c2cncc(C(=O)OC)c2)c1` [Example 8, methyl 5-(3-((pentylcarbamoyl)oxy)phenyl)nicotinate], 0.01 to 0.1 µM; with `CCCCCCCCNC(=O)Oc1cccc(-c2cncc(C#N)c2)c1` [Example 27, 3-(5-cyanopyridin-3-yl)phenyl octylcarbamate], 0.01 to 0.1 µM.
